Assay results taken from patent US7642269B2, “Pyrrolo[3,2-B]pyridine derivatives and processes for the preparation thereof” (Yuhan Corporation, priority 2005, dated 2010).
Structures can show the parent of a compound that is named as a salt.

Molecular target: T1, H^+/K^+-ATPase (Sus scrofa, UniProt P19156)
T1 construct: used as an enzyme source of the in vitro enzyme reaction assay of proton pump; from tissue; host or cells: hog gastric fundic mucosa (membrane vesicles, lyophilized)
Test: Inhibitory effects on proton pump (H^+/K^+-ATPase) activity, hog gastric vesicles
Type: biochemical
Conditions: K^+ stimulated H^+/K^+-ATPase activity, hog gastric vesicle, Pi measured at 620 nm
Description: Preparation of Gastric Proton Pump Vesicles
The hog fundic regions containing parietal and peptic cells were scraped with slide-glass. The collected cells were suspended in 10 ml of 0.25M sucrose buffer and homogenized using a tight-fitting Teflon-glass homogenizer. The homogenate was centrifuged for 35 min at 8,000 rpm and the pellet was discarded. The supernatant was further centrifuged for 75 min at 25,000 rpm. The resulting pellets were re-suspended in the sucrose buffer (10 ml), and then the suspension was laid onto discontinuous density gradients consisting of 0.25M sucrose buffer and isolation medium containing 9% Ficoll (w/w). After being centrifuged for 3 hours and 15 minutes at 100,000×g, the material at the interface of sucrose buffer and Ficoll solution was collected and then centrifuged for 40 minutes at 100,000×g. The resulting pellets were re-suspended in 1 ml of 5 mM Hepes/Tris buffer (pH 6.1). This material was lyophilized and stored at −70° C. and used as an enzyme source of the in vitro enzyme reaction assay of proton pump.
1-2. Measurement of Inhibitory Effects on Proton Pump (H+/K+-ATPase) activity
The inhibitory effects of the compounds of the present invention against proton pump activity were evaluated in 96-well plate. In this assay, the K^+ specific H^+/K^+-ATPase activity was calculated based on the difference between the activity of H^+/K^+-ATPase activity with K^+ and without K^+ ion. In 96-well plate, 1% dimethylsulfoxide (DMSO) in buffer was added to negative and positive control groups and the diluted compounds of the present invention in buffer were added to test group. All assays were performed in 100 μl reaction volume at room temperature, and the hog gastric vesicle was kept in ice before use. At the beginning of the reaction, 10 μl of reaction buffer containing 1% DMSO was added to the negative and positive control groups and to each concentration of compounds in the test group. Then lyophilized vesicle in 5 mM Pipes/Tris buffer (pH 6.1) was pre-incubated in the presence of various concentrations of test compounds. After a 5 minute incubation, negative and positive buffers were respectively added to the previous reaction mixture. As the substrate, ATP was added to the reaction buffer, and incubated for 30 minutes at 37° C. Enzymatic activity was stopped by the addition of colorimetric reagent (2× malachite green, 1× ammonium molybdate, 1× polyvinyl alcohol, 2× H2O) and the amount of mono phosphate (Pi) in the reaction was measured at 620 nm using the micro plate reader (Genios Pro, TECAN). The difference between the Pi production with K^+ and without K^+ is taken as K^+ stimulated H^+/K^+-ATPase activity.

T1 sequence (P19156 2-1034 limits assumed): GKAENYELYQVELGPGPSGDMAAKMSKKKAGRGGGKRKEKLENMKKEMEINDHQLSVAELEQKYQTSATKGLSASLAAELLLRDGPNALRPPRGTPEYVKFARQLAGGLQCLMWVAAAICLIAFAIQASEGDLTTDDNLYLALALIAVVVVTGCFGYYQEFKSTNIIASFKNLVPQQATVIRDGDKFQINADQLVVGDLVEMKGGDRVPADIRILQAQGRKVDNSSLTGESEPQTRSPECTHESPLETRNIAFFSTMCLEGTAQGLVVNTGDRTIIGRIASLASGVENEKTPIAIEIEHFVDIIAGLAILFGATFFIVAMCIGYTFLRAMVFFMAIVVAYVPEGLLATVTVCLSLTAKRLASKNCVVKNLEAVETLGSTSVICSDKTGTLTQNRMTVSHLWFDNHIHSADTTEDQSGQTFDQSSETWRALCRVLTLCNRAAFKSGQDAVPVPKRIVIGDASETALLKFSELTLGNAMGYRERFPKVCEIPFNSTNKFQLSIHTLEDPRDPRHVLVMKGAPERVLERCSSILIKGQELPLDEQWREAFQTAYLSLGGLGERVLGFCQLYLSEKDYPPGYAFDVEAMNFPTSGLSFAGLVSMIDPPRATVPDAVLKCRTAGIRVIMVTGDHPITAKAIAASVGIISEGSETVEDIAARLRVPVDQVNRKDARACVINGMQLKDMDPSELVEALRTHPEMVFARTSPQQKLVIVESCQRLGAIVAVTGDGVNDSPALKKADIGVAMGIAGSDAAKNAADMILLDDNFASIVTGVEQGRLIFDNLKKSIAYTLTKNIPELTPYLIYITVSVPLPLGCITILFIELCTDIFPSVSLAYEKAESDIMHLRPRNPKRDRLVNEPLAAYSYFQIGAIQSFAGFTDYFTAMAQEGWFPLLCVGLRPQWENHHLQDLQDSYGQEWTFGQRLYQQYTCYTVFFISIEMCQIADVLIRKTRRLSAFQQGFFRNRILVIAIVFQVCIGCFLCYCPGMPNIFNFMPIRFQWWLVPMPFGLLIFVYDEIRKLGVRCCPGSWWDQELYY
T1 sequence (P18434 whole entry partner): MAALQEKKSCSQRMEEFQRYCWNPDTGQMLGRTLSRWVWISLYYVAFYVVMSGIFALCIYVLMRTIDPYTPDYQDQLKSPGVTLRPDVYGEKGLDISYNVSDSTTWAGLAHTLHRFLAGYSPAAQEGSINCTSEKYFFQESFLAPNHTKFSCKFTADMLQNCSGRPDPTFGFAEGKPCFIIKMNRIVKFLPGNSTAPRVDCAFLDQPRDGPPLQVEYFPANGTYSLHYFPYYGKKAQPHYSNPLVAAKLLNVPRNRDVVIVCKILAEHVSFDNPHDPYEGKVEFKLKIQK

| IC50 | Compound |
| --- | --- |
| 3820 nM | COC(=O)Cn1c(C)c(C)c2nccc(OCc3ccc(Cl)cc3)c21 [Example 83, [7-(4-chlorobenzyloxy)-2,3-dimethyl-pyrrolo[3,2-b]pyridin-1-yl]acetic acid methyl ester hydrochloride] |
| 610 nM | Cc1ccc(Cn2c(C)c(C)c3nccc(OCc4cccc(C)c4)c32)cc1 [Example 156, 2,3-dimethyl-1-(4-methylbenzyl)-7-(3-methylbenzyloxy)-1H-pyrrolo[3,2-b]pyridine hydrochloride] |
| 130 nM | Cc1ccc(Cn2c(C)c(C)c3nccc(OCc4ccc(Cl)cc4)c32)cc1 [Example 96, 7-(4-chlorobenzyloxy)-1-(4-methylbenzyl)-2,3-dimethyl-1H-pyrrolo[3,2-b]pyridine hydrochloride] |
| 1210 nM | Cc1c(C)n(Cc2ccc(Cl)cc2)c2c(OCc3cc(F)cc(F)c3)ccnc12 [Example 183, 1-(4-chlorobenzyl)-7-(3,5-difluorobenzyloxy)-2,3-dimethyl-1H-pyrrolo[3,2-b]pyridine hydrochloride] |
| 460 nM | Cc1c(C)n(Cc2ccc(F)cc2)c2c(OCc3ccc4c(c3)OCO4)ccnc12 [Example 118, 7-(benzo[1,3]dioxol-5-ylmethoxy)-1-(4-fluorobenzyl)-2,3-dimethyl-1H-pyrrolo[3,2-b]pyridine hydrochloride] |
| 1030 nM | CCCn1c(C)c(C)c2nccc(OCc3cccc(C)c3)c21 [Example 153, 2,3-dimethyl-7-(3-methylbenzyloxy)-1-propyl-1H-pyrrolo[3,2-b]pyridine hydrochloride] |
| 230 nM | Cc1ccc(Cn2c(C)c(C)c3nccc(OCc4ccc(F)cc4)c32)cc1 [Example 34, 7-(4-fluorobenzyloxy)-2,3-dimethyl-1-(4-methylbenzyl)-1H-pyrrolo[3,2-b]pyridine hydrochloride] |
| 650 nM | Cc1c(C)n(Cc2ccc(Cl)cc2)c2c(OCc3ccc(F)cc3)ccnc12 [Example 33, 1-(4-chlorobenzyl)-7-(4-fluorobenzyloxy)-2,3-dimethyl-1H-pyrrolo[3,2-b]pyridine hydrochloride] |
| 1260 nM | Cc1c(C)n(Cc2ccc3ccccc3c2)c2c(OCc3ccc(F)cc3)ccnc12 [Example 37, 7-(4-fluorobenzyloxy)-2,3-dimethyl-1-(naphthalen-2-ylmethyl)-1H-pyrrolo[3,2-b]pyridine hydrochloride] |
| 240 nM | Cc1cccc(COc2ccnc3c(C)c(C)n(CC4CC4)c23)c1 [Example 154, 1-cyclopropylmethyl-2,3-dimethyl-7-(3-methylbenzyloxy)-1H-pyrrolo[3,2-b]pyridine hydrochloride] |
| 1210 nM | Cc1cccc(Cn2c(C)c(C)c3nccc(OCc4ccc(Br)cc4)c32)c1 [Example 223, 7-(4-bromobenzyloxy)-2,3-dimethyl-1-(3-methylbenzyl)-1H-pyrrolo[3,2-b]pyridine hydrochloride] |
| 880 nM | COc1cccc(Cn2c(C)c(C)c3nccc(OCc4cccc(C)c4)c32)c1 [Example 159, 1-(3-methoxybenzyl)-2,3-dimethyl-7-(3-methylbenzyloxy)-1H-pyrrolo[3,2-b]pyridine hydrochloride] |
| 520 nM | Cc1cccc(Cn2c(C)c(C)c3nccc(OCc4ccc(Cl)cc4)c32)c1 [Example 95, 7-(4-chlorobenzyloxy)-1-(3-methylbenzyl)-2,3-dimethyl-1H-pyrrolo[3,2-b]pyridine hydrochloride] |
| 4700 nM | Cc1ccc(C)c(Cn2c(C)c(C)c3nccc(OCc4ccc(Cl)cc4)c32)c1 [Example 82, 7-(4-chlorobenzyloxy)-1-(2,5-dimethylbenzyl)-2,3-dimethyl-1H-pyrrolo[3,2-b]pyridine hydrochloride] |
| 1590 nM | Cc1c(C)n(Cc2ccc(C(C)(C)C)cc2)c2c(OCc3ccc(Cl)cc3)ccnc12 [Example 79, 1-(4-tert-butylbenzyl)-7-(4-chlorobenzyloxy)-2,3-dimethyl-1H-pyrrolo[3,2-b]pyridine hydrochloride] |
| 380 nM | Cc1ccc(Cn2c(C)c(C)c3nccc(OCc4cc(F)cc(F)c4)c32)cc1 [Example 196, 7-(3,5-difluorobenzyloxy)-1-(4-methylbenzyl)-2,3-dimethyl-1H-pyrrolo[3,2-b]pyridine hydrochloride] |
| 1070 nM | Cc1c(C)n(Cc2ccc(F)cc2)c2c(OCc3cc(F)cc(F)c3)ccnc12 [Example 184, 7-(3,5-difluorobenzyloxy)-1-(4-fluorobenzyl)-2,3-dimethyl-1H-pyrrolo[3,2-b]pyridine hydrochloride] |

More lines, now with the values behind:

| Compound | IC50 |
| --- | --- |
| Cc1c(C)n(Cc2ccccc2F)c2c(OCc3ccc4c(c3)OCO4)ccnc12 [Example 101, 7-(benzo[1,3]dioxol-5-ylmethoxy)-1-(2-fluorobenzyl)-2,3-dimethyl-1H-pyrrolo[3,2-b]pyridine hydrochloride] | 1010 nM |
| Cc1c(C)n(CC2CCC2)c2c(OCc3ccc(Br)cc3)ccnc12 [Example 227, 7-(4-bromobenzyloxy)-1-cyclobutylmethyl-2,3-dimethyl-1H-pyrrolo[3,2-b]pyridine hydrochloride] | 90 nM |
| 1-(3-methylbuten-2-yl)-7-(1,2,3,4-tetrahydroisoquinolin-2-yl)-2,3-dimethyl-1H-pyrrolo[3,2-b]pyridine hydrochloride [Example 16] | 190 nM |
| CCn1c(C)c(C)c2nccc(OCc3ccc4c(c3)OCO4)c21 [Example 117, 7-(benzo[1,3]dioxol-5-ylmethoxy)-1-ethyl-2,3-dimethyl-1H-pyrrolo[3,2-b]pyridine hydrochloride] | 720 nM |
| C=CCn1c(C)c(C)c2nccc(OCc3ccc(Br)cc3)c21 [Example 220, 1-allyl-7-(4-bromobenzyloxy)-2,3-dimethyl-1H-pyrrolo[3,2-b]pyridine hydrochloride] | 50 nM |
| CC(C)=CCn1c(C)c(C)c2nccc(OCc3ccc(Cl)cc3Cl)c21 [Example 135, 7-(2,4-dichlorobenzyloxy)-2,3-dimethyl-1-(3-methylbut-2-enyl)-1H-pyrrolo[3,2-b]pyridine hydrochloride] | 150 nM |
| CCCn1c(C)c(C)c2nccc(OCc3cc(F)cc(F)c3)c21 [Example 182, 7-(3,5-difluorobenzyloxy)-2,3-dimethyl-1-propyl-1H-pyrrolo[3,2-b]pyridine hydrochloride] | 3880 nM |
| Cc1c(C)n(CC2CC2)c2c(OCc3cc(F)cc(F)c3)ccnc12 [Example 180, 1-cyclopropylmethyl-7-(3,5-difluorobenzyloxy)-2,3-dimethyl-1H-pyrrolo[3,2-b]pyridine hydrochloride] | 830 nM |
| Cc1c(C)n(CC2OCCO2)c2c(N3CCc4ccccc4C3)ccnc12 [Example 3, 1-(1,3-dioxolan-2-ylmethyl)-7-(1,2,3,4-tetrahydroisoquinolin-2-yl)-2,3-dimethyl-1H-pyrrolo[3,2-b]pyridine hydrochloride] | 640 nM |
| Cc1nc2c(C)c(C)n(Cc3ccccc3)c2c(OCc2ccc(F)cc2)c1C [Example 264, 1-benzyl-7-(4-fluorobenzyloxy)-2,3,5,6-tetramethyl-1H-pyrrolo[3,2-b]pyridine hydrochloride] | 3070 nM |
| Cc1cccc(Cn2c(C)c(C)c3nccc(N4CCc5ccccc5C4)c32)c1 [Example 12, 1-(3-methylbenzyl)-7-(1,2,3,4-tetrahydroisoquinolin-2-yl)-2,3-dimethyl-1H-pyrrolo[3,2-b]pyridine hydrochloride] | 970 nM |
| Cc1c(C)n(CC2OCCO2)c2c(OCc3ccc4c(c3)OCO4)ccnc12 [Example 100, 7-(benzo[1,3]dioxol-5-ylmethoxy)-1-([1,3]-dioxolan-2-ylmethyl)-2,3-dimethyl-1H-pyrrolo[3,2-b]pyridine hydrochloride] | 2820 nM |
| Cc1[nH]c2c(OCc3ccc(Br)cc3)ccnc2c1C [Example 218, 7-(4-bromobenzyloxy)-2,3-dimethyl-1H-pyrrolo[3,2-b]pyridine] | 3280 nM |
| CCOc1ccccc1COc1ccnc2c(C)c(C)n(Cc3cccc(OC)c3)c12 [Example 177, 7-(2-ethoxybenzyloxy)-1-(3-methoxybenzyl)-2,3-dimethyl-1H-pyrrolo[3,2-b]pyridine hydrochloride] | 290 nM |
| CCOc1ccccc1COc1ccnc2c(C)c(C)n(Cc3cccc(F)c3)c12 [Example 178, 1-(3-fluorobenzyl)-7-(2-ethoxybenzyloxy)-2,3-dimethyl-1H-pyrrolo[3,2-b]pyridine hydrochloride] | 840 nM |
